The subject of data set [1] is Mus musculus. Briefly: Evaluated in vitro for anesthetic activity in mice and ED50 value was reported. The data set is classed as functional.
Data set [2] concerns Canis familiaris. Description: Evaluated in vitro for anesthetic activity in dog and minimum alveolar concentration (MAC) was determined. Set-up: unit not given here. The data set is classed as functional, Canis lupus familiaris.
Data set [3] deals with Homo sapiens. Briefly: Evaluated in vitro for anesthetic activity in man and minimum alveolar concentration (MAC) was determined. Set-up: unit not given here. The data set is classed as functional.
A short description of data set [4]: Partition coefficient was determined in oil/gas system and value was reported. The class given is ADME.

The source of these data is ChEMBL document CHEMBL1122102, “Hydrogen bonding and anesthetic potency” (J Med Chem, 1982).

`COC(F)(F)C(Cl)Cl` [METHOXYFLURANE] yielded an ED50 in data set [1] of 0.22. Besides, the MAC in data set [2] came out at 0.24; in data set [3] it was 0.16. Further, the Partition coefficient in data set [4] was determined as 950.

`FC(F)OC(Cl)C(F)(F)F` (stereo not drawn) [ISOFLURANE] yielded an ED50 in data set [1] of 0.57. Moreover, the MAC in data set [2] was 1.28; in data set [3], 1.15. Further, the Partition coefficient in data set [4] is listed as 97.

In data set [1], `ClC(Cl)Cl` [CHLOROFORM] had an ED50 of 0.84. Also, the MAC came out at 0.77 in data set [2] and 0.5 in data set [3].

In data set [1], `FC(F)(F)C(Cl)Br` (stereo not drawn) [HALOTHANE] showed an ED50 of 0.77. In addition, the results for the MAC in data set [2] and in data set [3] were 0.87 and 0.74, respectively. In data set [4], this compound came in with a Partition coefficient of 220.

Take `FC(F)OC(F)(F)C(F)Cl` (stereo not drawn): the figures for the MAC in data set [2] and in data set [3] were 2.06 and 1.68, respectively. The compound further showed a Partition coefficient in data set [4] of 98.
